Data taken from patent publication US9272047B2, “Use of biological surfactant as anti-inflammatory agent and tissue preservative solution” (Shaperon Inc., priority 2007, dated 2016).

System: LPS-administered C57BL/6 mice
Assay: Protection in LPS mouse model of sepsis (survival)
Format: in vivo, C57BL/6 mouse
Settings: for survival rate of the mice: 20 mg/kg LPS into abdomen
Method: In order to assay the neutralizing capacity of sodium glycocholate to LPS, three C57BL/6 mice of 6 weeks age were used per each group. 20 mg/kg and 10 mg/kg of LPS were administered into abdomen of the mouse in order to measure LD50 of LPS. It was observed that 20 mg/kg of LPS is the best optimal concentration for the test of protection test (FIG. 16).
The […] neutralizing capacity of sodium glycocholate to LPS was assayed. The survival rate was measured after 20 mg/kg of LPS was administered into the abdomen of mice and then 12.5 mg/kg of sodium glycocholate, and 20 mg/kg of LPS and 50 mg/kg of sodium glycocholate respectively was administered twice into the abdomen of mice, respectively.

`C[C@H](CCC(=O)NCC(=O)[O-])[C@H]1CC[C@H]2[C@@H]3[C@H](O)C[C@@H]4C[C@H](O)CC[C@]4(C)[C@H]3C[C@H](O)[C@]12C.[Na+]` [sodium glycocholate] was tested, and the “survival rate of the mice” value (12.5 mg/kg administered twice (1 hour and 6 hours after LPS)) was 40%, the “survival rate of the mice” value (50 mg/kg administered twice (1 hour and 6 hours after LPS)) was 60% and the mortality of mice (dose of 12.5 mg/kg mouse) was “significantly reduced”.
